{
  "source": "patent US6916843B1",
  "about": "“Anti-inflammatory actions of cytochrome P450 expoxygenase-derived eicosanoids” (The United States of America as represented by the …, priority 1999, dated 2005)",
  "key": {"[1]": {"system": "IκB-α", "assay": "Fate of IκB-α after TNF-α stimulation of human endothelial cells", "type": "cell-based", "settings": "TNF-α 10 ng/ml, 15 min; EET 100 nM", "text": "Co-treatment with [11,12]-EET prevented the nuclear accumulation of RelA. Since the nuclear translocation of RelA requires the degradation of its endogenous cytoplasmic inhibitor, inhibitor kappa B (IκB-α), we followed the fate of IκB-α after TNF-α stimulation in the presence or absence of [11,12]-EET. Stimulation of human endothelial cells with TNF-α caused a rapid and almost complete disappearance of IκB-α which was prevented by co-treatment with [11,12]-EET, but not [14,15]-EET.\nA set of gel shift assays was performed. […] In some assays, [11,12]-EET (100 nM) was also added directly to the IKK assay (in vitro). As a control for nonspecific phosphorylation, the assay was performed without the addition of immunoprecipitated IKK (no enzyme) or in the presence of a IκB-α mutant (ΔSer 32, Ser 36→Thr) as substrate. The assay was performed three times with similar results.\nSpecificity of IKB was determined by the complete absence of phosphorylation when the mutated IκB-α substrate, GST-1κB-α (Δ32,36: S→T) which cannot be phosphorylated at serine residues 32 and 36, was substituted for wild-type GST-IκB-α."}, "[2]": {"system": "mononuclear cell adhesion to carotid artery", "assay": "TNF-α-induced mononuclear cell (U937) adhesion in the murine carotid artery", "type": "in vivo", "settings": "mouse, intra-arterial infusion 100 ng/kg/min, TNF-α 10 μg/kg i.p., 5 hours", "procedure": "FIG. 3A is a graph showing the expression of VCAM-1 in the murine carotid artery at 5 hours after treatment with intraperitaneal injection of TNF-α (10 μg/kg) alone or in combination with continuous intra-arterial infusion of [11,12]-EET (100 ng/kg/min). FIG. 3B is a bar graph showing the effect of [11,12]-EET on TNF-α induced mononuclear cell adhesion in the murine carotid artery. The mononuclear cells (U937) were perfused through the carotid artery at a wall shear stress of 3 dyn/cm^2. Intra-arterial infusion of vehicle (saline) or [14,15]-EET (100 ng/kg/min) had no effect. […] All experiments except the [14,15]-EET infusion were performed in duplicate.\nTo determine the functional relevance of EETs in vascular inflammation, we tested [11,12]-EET and its regioisomer [14,15]-EET in a recently developed in vivo model of TNF-α-induced VCAM-1 -mediated mononuclear cell adhesion in the murine carotid artery. […]\nCell rolling and adhesion were recorded on videotape using stroboscopic epifluoresence illumination with an introvital microscope (objective Zeiss 20×, 0.5 numerical aperture). […] In separate experiments, VCAM-1 expression was measured in paraffin-sections (5 μm thick) of carotid arteries harvested from mice treated in the same way. […]"}, "[3]": {"system": "VCAM-1 expression", "assay": "Cell-surface enzyme immunoassay of cytokine-induced VCAM-1 expression in endothelial cells", "type": "cell-based, human", "settings": "human endothelial cells, 1-100 nM, TNF-α", "procedure": "FIG. 2 is a set of bar graphs of cell-surface enzyme immunoassays. […] The difference between treatment with TNF-α alone and in the presence of [11,12]-EET were statistically significant (*p<0.05, **p<0.01), OD, optical density. […] After stimulation with TNF-α (10 ng/ml) in the presence or absence of EET, promoter activity was determined relative to basal activity. *p<0.01 vs. TNF-α alone.\nTo determine the biological effects of EETs, we treated tumor necrosis factor alpha (TNF-α)-stimulated human endothelial cells with physiological relevant concentrations (1-100 nM) of [5,6]-EET, [8,9]-EET, [11,12]-EET, [14,15]-EET, [11,12]-DHET."}, "[4]": {"system": "bovine aortic endothelial cells (BAECs)", "assay": "Hypoxia-reoxygenation-induced cell injury in BAECs (cell number, LDH release, trypan blue)", "type": "cell-based", "settings": "1 μmol/L, added 10 min prior to hypoxia (24 h hypoxia, 4 h reoxygenation)", "procedure": "Effects of P450-derived arachidonic acid metabolites on hypoxia-reoxygenalion-induced injury in BAECs. BAECs, either untransfected, or 48 hours after transfection with pcDNA3.1/GFP or pcDNA3.1/CYP2J2, or 10 min after treatment with eicosanoids, epoxide hydrolase inhibitors or vehicle, were exposed to hypoxia (95% nitrogen plus 5% carbon dioxide) for 24 hours, followed by reoxygenation (95% air plus 5% carbon dioxide) for 4 hours using an environmental chamber within a 37° C. incubator. Cells maintained under continuous (28 hours) normoxic conditions served as controls.\nEETs were prepared by total chemical synthesis as previously described (Corey el al., 102 J. Am. Chem. Soc. 1433-1435 (1980), Falck et al., 23 Tetrahedron Lett. 1755-1756 (1982)). DHETs were prepared by chemical hydration of EETs as described by Capdevila et al., 187 Methods Enzymol. 386-394 (1990). Synthetic EETs and DHETs were purified by reverse-phase HPLC prior to use. BAECs, grown to ˜85% confluency, were treated with either synthetic [11,12]-EET, [11,12]-DHET, or [14,15]-EET in ethanol vehicle (1 μmol/L each, final concentration) for 10 min prior to exposure to hypoxia-reoxygenation. […] Cells treated with vehicle alone served as controls.\nAfter hypoxia-reoxygenation, the cell number was determined using a hemocytometer and the degree of cell injury was assessed by measuring lactate dehydrogenase release into the culture medium using the CytoTox 96 Non-Radioactive Cytotoxicity Assay Kit (Promega, Madison, Wis.) and by counting the number of trypan blue dye stained cells. Data are expressed as a percentage of values obtained from control cells maintained under normoxic conditions."}, "[5]": {"target": "purified GST-IκB-α fusion protein (wild-type) (UniProt P25963)", "sequence (P25963 1-54)": "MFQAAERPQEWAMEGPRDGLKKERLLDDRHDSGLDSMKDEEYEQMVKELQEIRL"}, "[6]": {"target": "mutated IκB-α substrate GST-IκB-α (Δ32,36: S→T) (UniProt P25963)", "sequence (P25963 other isoform, or with tags, fused parts or gaps mutant)": "as the sequence (P25963 1-54) above, with S32T, S36T counted along it"}},
  "note": "“Also recorded” adds a separate entry of the source. Peptide text beside a SMILES is read from it. * marks the point of attachment. Cbz = O=C(OCc1ccccc1)*",
  "data": [
    {"molecule": "CC(C)C[C@@H](C=O)NC(=O)[C@H](CC(C)C)NC(=O)[C@H](CC(C)C)NC(=O)OCc1ccccc1", "note": "[MG132, reference compound] (Cbz-Leu-Leu-Leu-aldehyde)", "values": [
      {"measurement": "effect on TNF-α-induced disappearance/degradation of IκB-α", "setting": "[1]", "value": "prevented"}
    ]},
    {"molecule": "CCCCCC1OC1C/C=C\\C/C=C\\C/C=C\\CCCC(=O)O", "note": "(stereo not drawn) [[14,15]-EET]", "values": [
      {"measurement": "mononuclear cell adhesion to the vessel wall", "setting": "[2]", "value": "had no effect"},
      {"measurement": "inhibition of TNF-α-induced VCAM-1 expression (rank/words)", "setting": "[3]", "value": "did not inhibit"},
      {"measurement": "hypoxia-reoxygenation-induced cell injury, number of trypan blue stained cells", "setting": "[4]", "value": "active in attenuating; also recorded: significantly attenuates"}
    ]},
    {"molecule": "IκB kinase (IKK) immunoprecipitated from human endothelial cells", "values": [
      {"measurement": "IKK activity (phosphorylation of GST-IκB-α substrate)", "setting": "[5]", "value": "Stimulation with TNF-α caused an increase in IKK activity"},
      {"measurement": "IKK activity (phosphorylation of mutated substrate)", "setting": "[6]", "value": "complete absence of phosphorylation when the mutated IκB-α substrate, GST-1κB-α (Δ32,36: S→T) which cannot be phosphorylated at serine residues 32 and 36, was substituted for wild-type GST-IκB-α"}
    ]}
  ]
}
